Patent publication US20240041842A1, “PHARMACEUTICAL COMPOSITION FOR INHIBITING CANCER METASTASIS” (INDUSTRY-ACADEMIC COOPERATION FOUNDATION, YONSEI UNIVERSITY, priority 2021, published 2024)

Key:
Assay type in all cases: cell-based, human
[1] = system: Snail; assay: Western blot of Snail protein
Description: (§1) Cells were harvested, washed with PBS, and lysed on ice with RIPA buffer containing protease and phophatase inhibitor cocktail (GenDEPOT). After 15 minutes of incubation, the cell lysates were centrifuged at 15,000 rpm at 4° C. for 10 minutes. Protein concentration was measured by Bradford assay (Bio-rad, 500-0006). Equal amounts of total protein were placed on an SDS gel electrophoresis and transferred to a PVDF membrane (Bio-rad). The membrane was blocked with 5% skim milk for 1 hour at room temperature and incubated overnight at 4° C. with primary antibody in a buffer containing 0.1% Tween-20. Subsequently, the membrane was washed three times with Tween-PBS buffer and incubated for 1 hour at room temperature using a secondary antibody diluted in blocking buffer containing 0.1% Tween-20. Subsequently, the membrane was washed three times for 10 minutes each using Tween-TBS. Densitometry of Western blots was measured using ImageJ software.
[…] For autophagy activation, cells were'treated with 2 μM rapamycin (Selleckchem, S1039) for 5 hours. Modulation of intracellular ROS was performed with N-acetyl-cysteine (10 mM) (Sigma, A7250), hydrogen peroxide solution (100 μM to 200 μM) (Sigma, 216763), or CDDO-ME NRF2 activator (50 nM, 100 nM) (Sellckchem, S8078) for 4 to 24 hours. Intercellular calcium signal control was performed for 1 hour using BAPTA-AM (20 μM) (Sigma, A1076) or Calmidazolium Chloride (2.5 μM) (Sigma, C3930). […] For TFEB protein phosphorylation, tacrolimus (1 μM) (Selleckchem, S5003) was treated for 1 hour. […] During siRNA treatment, each siRNA was treated to a concentration of 40 to 50 nM and treated together with Lipofectamine RNAiMax (Thermo Fisher Scientific, 13778150) for transformation, and were used for experiments 48 to 72 hours later. For cDNA treatment, each cDNA was treated to a concentration of 1 to 2 μg in a 6-well plate and treated with Lipofectamine 2000 (Thermo Fisher Scientific, 11668019) for transformation, and were used for experiments 24 hours later.

[2] = system: KL cell lines; assay: Matrigel invasion assay, KL cell lines; conditions: in two of the three KL cell lines; AMG-510 1 uM
Description: (§2) For the 2D invasion assay, the inserts were pre-coated with 300 μg/ml Matrigel (Coming, 354234). After staining with […] dye (Bio-Rad, 1450013), 1×10^5 live cells per 8-um-pore cell-culture insert (Costar. 3422) were seeded in 0.5% ACL medium. 10% ACL medium was added to the outside of the insert. In the case of lung cancer and pancreatic cancer cell lines, after inoculation in 1% RPMI medium, 20% RPMI medium was added to the outside of the insert. Plates were incubated for 24 hours at 37° C. After incubation, the insert was fixed with 3.7% PFA, washed, stained with 0.4% crystal violet, and the upper membrane was washed and dried.

[3] = system: β-catenin; assay: Western blot of β-catenin; conditions: HBEC-KL; CHIR99021 3 uM, 5 hours, in the presence of 50 uM CQ
Description: as §1, with “FIG. 5K illustrates the expression level of Snail protein after treatment with the GSK3β inhibitor CHIR99021 (3 uM, treatment for 5 hours) in the presence of 50 uM chloroquine (CQ) in the HBEC-KL cell line. Cells” for “Cells”

[4] = system: Snail; assay: Western blot of Snail protein; conditions: HBEC-KL
[5] = system: HBEC-KL cell line; assay: Matrigel invasion assay, HBEC-KL cell line
Description: as §2

[6] = system: acetylated Snail; assay: Immunoprecipitation-immunoblot of acetylated Snail; conditions: HBEC-KL
Description: (§3) Cell lysates (1 μg protein) were incubated overnight at 4° C. on anti-FLAG® M2 Affinity Gel (Sigma, A2220) or anti-acetyl-lysine antibody coated agarose (ImmuneChem Pharmaceuticals, ICP0388). The immunoprecipitate was then washed three times in IP buffer, and the immunoprecipitated complex was dissolved and separated by boiling in IP buffer for 5 minutes.
For SDS-PAGE electrophoresis, the immunoprecipitated complex was transferred to a nitrocellulose membrane and the membrane was blocked and then incubated for 1 hour at room temperature with Primary antibody and secondary antibody (VeriBlot for IP Detection Reagent (HRP) (Abcam, #ab131366), and anti-mouse IgG tor IP (HRP) (Abeam, #ab131368)).
After washing 3 times, the membrane was incubated with the secondary antibody.

[7] = system: phospho-RPS6 (p-S6); assay: Western blot of phospho-RPS6 (p-S6); conditions: HBEC-KL; acetate or SAHA treatment
Description: as §1

[8] = system: TFEB; assay: Immunofluorescence of TFEB localization; conditions: HBEC-KL; 10 mM acetate 24 hours or 3 uM SAHA 5 hours
Description: Cells were seeded onto coated glass coverslips and maintained in ACL medium for 48 hours. After washing the cells three times with PBS. they were incubated in 3.7% paraformaldehyde for 10 minutes and fixed. Thereafter, the cells were washed three times with PBS and subjected to cell permeabilizaton in PBS containing 0.1% Triton X-100 for 10 minutes. After washing with PBS three times, the sample was blocked for 30 minutes at room temperature with PBS containing 0.1% Triton X-100 and 5% goat serum. Samples were incubated with primary antibody (1:150). followed by incubation with anti-rabbit/mouse Alexa Fluor 488/568 secondary antibody (Thermo Fisher Scientific, A-11001, 11004, 11008. 11011) and ProLong Gold Antifade Mountant with DAPI (Thermo Fisher Scientific, P36931), Images were taken with an Axio imager M2 microscope (Carl Zeiss, […]) equipped with a 63× oil objective and analyzed with ZEN version 3.0 software.

[9] = system: TFEB; assay: Western blot / immunoprecipitation-immunoblot of TFEB (acetylated, phosphorylated, total); conditions: HBEC-KL; for reduced TFEB protein level in the chloroquine (CQ) treatment condition: 50 uM CQ 24 hours with 10 mM acetate 24 hours or 3 uM SAHA 15 hours; for acetylated TFEB level / phosphorylated TFEB level / total TFEB protein level: 10 mM acetate 24 hours or 3 μM SAHA
Description: FIG. 11J illustrates a diagram of immunoblot results of the […] a control (left), and the immunoprecipitation-immunoblot result of TFEB acetylated HBEC-KL cells under the same conditions (right) is also shown,
as §1
as §3, with “For immunoprecipitation, equal amounts of lysate and Co-IP buffer (40 mM HEPES, pH 7.4, 120 mM NaCl, 2 mM EDTA, 0.3% CHAPS (Sigma, 10810118001), 10 mM pyrophosphate (Sigma, 221368), 10 mM glycerophosphate (Sigma, G9422), 50 mM NaF, phosphatase and protease inhibitor mixture) were mixed. Cell” for “Cell”

[10] = system: TFEB (CLEAR network); assay: CLEAR motif-driven luciferase reporter assay; conditions: HBEC-KL
Description: To compare the TFEB reporter activity with other cell lines (HBEC30KT, HBEC-K, and HBEC-KL), the pGL4.70 5× CLEAR Rluc and pSt4.14 Fluc vectors were transiently co-transfected and normalized luciferase activity was measured in Dual-Measured by Luciferase® Reporter Assay System (Promega, E1910),

[11] = system: LC3; assay: Autophagic flux (LC3 Western blot, mRFP-GFP-LC3 lysosomal delivery assay); conditions: HBEC-KL; 10 mM acetate 24 hours or 3 uM SAHA
Description: as §1, with “Representative GFP-LC3, RFP-LC3 and overlapping images are shown. In addition, red puncta (mRFP+/GFP−) and yellow puncta (mRFP+/GFP+) per cell were quantified and graphed (n=15 cells/treatment). Cells” for “Cells”

[12] = system: Snail; assay: Immunoprecipitation-immunoblot of phosphorylated/acetylated or K48 polyubiquitinated Snail in A549 cells; conditions: 25 uM C646 or 3 uM SAHA
Description: FIG. 9K illustrates the immunoprecipitation-immunoblot result of phosphorylated/acetylated or K48 polyubiquitinated Snail assay after transfection of wild-type Snail (pFLAG-Snail WT) or acetylation-defective Snail mutant (pFLAG-SnailK146R) into A549 cells and/or treatment with 25 uM C646.
FIG. 9L illustrates the immunoprecipitation-immunoblot results of the polyubiquitinated Snail assay after transfection of HA-ubiquitin and wild-type Snail (pFLAG-Snail WT) or acetylation-defective Snail mutant (pFLAG-SnailK146R) into A549 cells and/or treatment with 25 uM C646 for 2 hours (left) and/or treatment of 3 uM SAHA for 5 hours (right).
as §3, with “For immunoprecipitation, equal amounts of lysate and Co-IP buffer (40 mM HEPES, pH 7.4, 120 mM NaCl, 2 mM EDTA, 0.3% CHAPS (Sigma, 10810118001), 10 mM pyrophosphate (Sigma, 221368), 10 mM glycerophosphate (Sigma, G9422), 50 mM NaF, phosphatase and protease inhibitor mixture) were mixed. Cell” for “Cell”

[13] = system: TFEB gene; assay: Real-time PCR of TFEB gene; conditions: HBEC-KL; 10 mM acetate 24 hours or 3 uM SAHA 15 hours
Description: At 72 hours after siRNA transfection (post-transfection) and 12 to 24 hours after chemical treatment, total RNA was isolated with the RNeasy miniprep kit (QIAGEN, 74134). After synthesizing complementary DNA (cDNA) using the TOPscript·8 cDNA synthesis kit (Enzynomics, EZ0054), gRT-PCR was performed with TCPreal™ gRCR 2× PreMIX (SYBR Green with low ROX) (Enzynomics, RT501M). GAPDH and beta-actin were used for RNA normalization. qRT-PCR was performed with a StepOne Plus (Applied Biosystems) instrument.

[14] = system: SNAI1 gene; assay: Real-time PCR of SNAI1 gene; conditions: HBEC-KL; 10 mM acetate, 24 hours
Description: After synthesizing complementary DNA (cDNA) using the TOPscript·8 cDNA synthesis kit (Enzynomics, EZ0054), gRT-PCR was performed with TCPreal™ gRCR 2× PreMIX (SYBR Green with low ROX) (Enzynomics, RT501M). GAPDH and beta-actin were used for RNA normalization. qRT-PCR was performed with a StepOne Plus (Applied Biosystems) instrument.

**Q.** C=CC(=O)N1CCN(c2nc(=O)n(-c3c(C)ccnc3C(C)C)c3nc(-c4c(O)cccc4F)c(F)cc23)[C@@H](C)C1 [AMG-510] was tested. Which Snail expression level ([1]; in two of the three KL cell lines, AMG-510 1 uM, 48 hours) did it give?
**A.** increased

**Q.** And the cell invasiveness [2]?
**A.** increased

**Q.** How did the “expression levels of β-catenin under autophagy inhibition” value [3] turn out when Cc1c[nH]c(-c2cnc(NCCNc3ccc(C#N)cn3)nc2-c2ccc(Cl)cc2Cl)n1 [CHIR99021] was run?
**A.** restored

**Q.** And the “levels of Snail protein under autophagy inhibition” value ([4]; CHIR99021 3 uM, 5 hours, in the presence of 50 uM CQ)?
**A.** did not restore

**Q.** With O=C(CCCCCCC(=O)Nc1ccccc1)NO [SAHA, vorinostat] as the compound, how does the degree of matrigel-infiltration ([5]; HBEC-KL, SAHA) read?
**A.** increased

**Q.** What about the “level of acetylated Snail” value ([6]; 3 uM SAHA, 15 hours) of the same compound?
**A.** increased

**Q.** And the “level of phospho-RPS6 (p-S6)” value [7]?
**A.** kept constant

**Q.** What about the “level of nuclear-localized TFEB” value [8] of the same compound?
**A.** increased

**Q.** And the “reduced TFEB protein level in the chloroquine (CQ) treatment condition” value [9]?
**A.** partially restored

**Q.** What about the “acetylated TFEB level” value [9] of the same compound?
**A.** increased

**Q.** What about the “phosphorylated TFEB level” value [9] of the same compound?
**A.** increased

**Q.** What about the “total TFEB protein level” value [9] of the same compound?
**A.** increased

**Q.** What about the “CLEAR activity under FK506 treatment” value ([10]; 1 uM FK506 with 10 mM acetate 24 hours or 3 uM SAHA 15 hours) of the same compound?
**A.** increased

**Q.** What about the CLEAR activity ([10]; 10 mM acetate 24 hours or 3 uM SAHA 5 hours) of the same compound?
**A.** increased

**Q.** And the autophagy flux [11]?
**A.** increased

**Q.** What about the “K48 polyubiquitination of wild-type Snail” value ([12]; pFLAG-Snail WT) of the same compound?
**A.** reduced

**Q.** And the “phosphorylation of wild-type Snail” value ([12]; pFLAG-Snail WT)?
**A.** reduce

**Q.** And the “phosphorylation and acetylation of K146R Snail” value ([12]; pFLAG-SnailK146R)?
**A.** did not affect

**Q.** And the “Snail reduction by chloroquine (CQ), upon SAHA treatment” value ([4]; 3 uM SAHA and 50 uM CQ, 24 hours)?
**A.** restored

**Q.** And the “TFEB mRNA level” value [13]?
**A.** no significant change

**Q.** Which results are given for CC(=O)[O-].[Na+] [acetate, sodium acetate]?
**A.** invasiveness ([5]; KL cells (HBEC-KL), 10 mM acetate, 24 hours): increased; Snail protein expression levels ([1]; HBEC-KL, acetate, 24 hours): increased; level of acetylated Snail ([6]; 10 mM acetate, 24 hours): increased; level of phospho-RPS6 (p-S6) [7]: kept constant; level of nuclear-localized TFEB [8]: increased; reduced TFEB protein level in the chloroquine (CQ) treatment condition [9]: partially restored; acetylated TFEB level [9]: increased; phosphorylated TFEB level [9]: increased; total TFEB protein level [9]: increased; autophagy flux [11]: increased; TFEB mRNA level [13]: no significant change; Snail mRNA expression levels [14]: no effect
